# Results as given in ChEMBL document CHEMBL1135079, “CCR5 antagonists: bicyclic isoxazolidines as conformationally constrained N-1-substituted pyrrolidines” (Bioorg Med Chem Lett, 2002).
# Tests used:
# [1] = biological target: C-C chemokine receptor type 5 (Homo sapiens, UniProt P51681); test: Ability to displace [125I]-labeled MIP-1alpha from the C-C chemokine receptor type 5 expressed on CHO cell membranes
# [2] = system: Human immunodeficiency virus 1; test: Antiviral activity against BAL strain of HIV using HeLa cell anti-infectivity assay; format: functional; settings: Human immunodeficiency virus 1, HeLa
# Sequence of C-C chemokine receptor type 5 (P51681 whole entry): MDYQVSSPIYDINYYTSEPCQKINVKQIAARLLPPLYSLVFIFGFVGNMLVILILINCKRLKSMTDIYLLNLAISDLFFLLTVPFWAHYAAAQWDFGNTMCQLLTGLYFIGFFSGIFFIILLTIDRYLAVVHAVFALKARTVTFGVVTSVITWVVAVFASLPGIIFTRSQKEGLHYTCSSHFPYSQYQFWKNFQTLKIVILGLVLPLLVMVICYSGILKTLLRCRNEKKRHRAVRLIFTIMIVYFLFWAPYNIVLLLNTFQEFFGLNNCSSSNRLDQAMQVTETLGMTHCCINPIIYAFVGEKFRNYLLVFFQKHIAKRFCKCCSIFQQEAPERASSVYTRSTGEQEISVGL
SMILES,IC50 [1],IC90 [2]
C=CCN(C(=O)OCc1ccc([N+](=O)[O-])cc1)C1CCN(C[C@H]2CN3OC4(CCCCC4)C[C@H]3[C@@H]2c2ccccc2)CC1,0.13 nM,33 nM
C=CCN(C(=O)OCc1ccc([N+](=O)[O-])cc1)C1CCN(C[C@@H]2[C@@H](c3ccccc3)CN3OC4(CCCCC4)C[C@@H]23)CC1,14 nM,
CCN(C(=O)OCc1ccccc1)C1CCN(C[C@@H]2[C@@H](c3ccccc3)CN3O[C@H](c4ccccc4)C[C@@H]23)CC1,46 nM,
C=CCN(C(=O)OCc1ccc([N+](=O)[O-])cc1)C1CCN(C[C@@H]2[C@@H](c3ccccc3)CN3O[C@H](c4ccccc4)C[C@@H]23)CC1,6 nM,> 300 nM
c1ccc(CCCC2CCN(C[C@H]3CN4OC5(CCCCC5)C[C@H]4[C@@H]3c3ccccc3)CC2)cc1,8 nM,> 300 nM
c1ccc(C2CCN(C[C@H]3CN4O[C@H](c5ccccc5)C[C@H]4[C@@H]3c3ccccc3)CC2)cc1,27 nM,
c1ccc(CCCC2CCN(C[C@H]3CN4O[C@H](c5ccccc5)C[C@H]4[C@@H]3c3ccccc3)CC2)cc1,5 nM,> 300 nM
CCN(C(=O)OCc1ccccc1)C1CCN(C[C@@H]2[C@@H](c3ccccc3)CN3OC4(CCCCC4)C[C@@H]23)CC1,86 nM,
c1ccc(C2CCN(C[C@@H]3[C@@H](c4ccccc4)CN4O[C@H](c5ccccc5)C[C@@H]34)CC2)cc1,30 nM,
C=CCN(C(=O)OCc1ccc([N+](=O)[O-])cc1)C1CCN(C[C@H]2CN(C(=O)C3CCCCC3)C[C@@H]2c2ccccc2)CC1,,4 nM
c1ccc(C2CCN(C[C@H]3CN4OC5(CCCCC5)C[C@H]4[C@@H]3c3ccccc3)CC2)cc1,43 nM,
c1ccc(CCCC2CCN(C[C@@H]3[C@@H](c4ccccc4)CN4O[C@H](c5ccccc5)C[C@@H]34)CC2)cc1,11 nM,
CCN(C(=O)OCc1ccccc1)C1CCN(C[C@H]2CN3O[C@H](c4ccccc4)C[C@H]3[C@@H]2c2ccccc2)CC1,~27 nM,
CCN(C(=O)OCc1ccccc1)C1CCN(C[C@H]2CN3OC4(CCCCC4)C[C@H]3[C@@H]2c2ccccc2)CC1,5 nM,> 300 nM
C=CCN(C(=O)OCc1ccc([N+](=O)[O-])cc1)C1CCN(C[C@H]2CN3O[C@H](c4ccccc4)C[C@H]3[C@@H]2c2ccccc2)CC1,2.5 nM,300 nM
c1ccc(C2CCN(C[C@@H]3[C@@H](c4ccccc4)CN4OC5(CCCCC5)C[C@@H]34)CC2)cc1,33 nM,
